In patent publication US20210046085A1, “TREATMENT OF ADVANCED ESTROGEN RECEPTOR POSITIVE BREAST CANCER” (Pantarhei Oncology B.V., priority 2018, published 2021):
Read-outs that look alike come from different tables or passages of the source. Each block holds one molecule with its values, some of them ahead of it.

How the values were obtained:
[1] = target: T1, SHBG (Homo sapiens, UniProt P04278); settings: cited from earlier work
T1 sequence (P04278 30-402): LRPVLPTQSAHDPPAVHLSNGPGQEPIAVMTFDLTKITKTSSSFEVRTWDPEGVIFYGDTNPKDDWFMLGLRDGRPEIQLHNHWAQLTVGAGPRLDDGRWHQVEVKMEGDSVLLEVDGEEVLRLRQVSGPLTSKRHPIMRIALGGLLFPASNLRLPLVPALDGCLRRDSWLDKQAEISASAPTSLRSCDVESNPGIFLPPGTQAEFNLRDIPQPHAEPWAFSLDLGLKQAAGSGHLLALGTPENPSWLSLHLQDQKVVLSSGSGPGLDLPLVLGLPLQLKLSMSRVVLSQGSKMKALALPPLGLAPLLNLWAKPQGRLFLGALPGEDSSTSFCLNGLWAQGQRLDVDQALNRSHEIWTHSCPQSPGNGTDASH

[2] = cited from earlier work
[3] = Single dose pharmacokinetics study of oral estriol in postmenopausal women; format: in vivo, human; settings: for concentration at 24 h / concentration at 48 h / concentration at 72 h: female, human, plasma, read-out: Average plasma level; for Average plasma level: 0-24 hours
Description: A single dose pharmacokinetics study was conducted to evaluate the pharmacokinetics of different oral dosages of estriol in postmenopausal women. In total 16 women were assigned to two different groups (Cohort A and Cohort B). Each Cohort received two estriol treatments. […] A wash-out period of 7 days was taken into account between the treatments.

[4] = tested on: estrogen response element (ERE); settings: breast cancer cells; cited from earlier work
[5] = tested on: MCF-7 cells; settings: and higher (288 pg/ml); cited from earlier work
[6] = single oral dose of 12 mg, postmenopausal women, cited from earlier work
[7] = cited from earlier work; remark: listed apart in the source
[8] = tested on: T-47D cells; settings: and higher (288 pg/ml); cited from earlier work
[9] = tested on: long term estrogen deprived MCF7 breast cancer cells (LTED cells); assay: Cell count in long term estrogen deprived MCF7 breast cancer cells (LTED cells); format: cell-based, human; settings: for Cell number per well: cell count on Day 7
Description: LTED cells were plated in 6-well plates at a density of 30,000 cells per well. The cells were maintained in phenol red free IMEM with 5% charcoal stripped FBS (DCC-FBS). On Day 3, the medium was replaced with fresh phenol red free IMEM with 5% DCC-FBS. […] The final vehicle concentration was 0.1% ethanol for all experiments. Each treatment was done in duplicate.
On Day 5, the medium was changed and on Day 7 plates were subjected to a cell count analysis.

SMILES: C[C@]12CC[C@@H]3c4ccc(O)cc4CC[C@H]3[C@@H]1CC[C@@H]2O [estradiol, 17beta-estradiol]
Binding to SHBG ([1]; Hammond GL et al., Climacteric 2008): about 40%

concentration at 24 h ([3]; oral dose 5 mg): 0.017 ± 0.011 ng/mL
concentration at 48 h ([3]; oral dose 5 mg): 0.011 ± 0.015 ng/mL
concentration at 72 h ([3]; oral dose 5 mg): 0.002 ± 0.006 ng/mL
concentration at 24 h ([3]; oral dose 10 mg): 0.047 ± 0.067 ng/mL
concentration at 48 h ([3]; oral dose 10 mg): 0.012 ± 0.015 ng/mL
concentration at 72 h ([3]; oral dose 10 mg): 0.001 ± 0.002 ng/mL
concentration at 24 h ([3]; oral dose 20 mg): 0.064 ± 0.041 ng/mL
concentration at 48 h ([3]; oral dose 20 mg): 0.03 ± 0.01 ng/mL
concentration at 72 h ([3]; oral dose 20 mg): 0.008 ± 0.012 ng/mL
concentration at 24 h ([3]; oral dose 40 mg): 0.121 ± 0.113 ng/mL
concentration at 48 h ([3]; oral dose 40 mg): 0.052 ± 0.014 ng/mL
concentration at 72 h ([3]; oral dose 40 mg): 0.013 ± 0.008 ng/mL
Plasma levels of estriol after 72 hours ([3]; oral administration of 20 mg or 40 mg estriol): still significant after 72 hours
Plasma levels of estriol over 24 hours ([3]; oral administration of estriol 5-40 mg): remained fairly constant over 24 hours
Average plasma level ([3]; oral dose 5 mg): 28 pg/mL
Average plasma level ([3]; oral dose 10 mg): 39 pg/mL
Average plasma level ([3]; oral dose 20 mg): 103 pg/mL
Average plasma level ([3]; oral dose 40 mg): 110 pg/mL
Time of second increase after dosing (enterohepatic circulation) ([3]; single oral dose 5-40 mg): 4 to 6 h
Time of peak levels after dosing ([3]; single oral dose 5-40 mg, approximately): 1 to 2 h
SMILES: C[C@]12CC[C@@H]3c4ccc(O)cc4CC[C@H]3[C@@H]1C[C@@H](O)[C@@H]2O [estriol, estra-1,3,5(10)-triene-3,16α,17β-triol]
Half-life after oral administration ([2]; Maturitas (1990), 12:171-197): 9 to 10 h
Half-life after oral administration ([2]; Summary of Product Characteristics of Synapause): 1.5 h
Conjugated in the intestine to glucuronides ([2]; oral administration): 80-90%
Conjugated in the intestine to sulfates ([2]; oral administration): 10-20%
Fraction that reaches the circulation ([2]; oral administration): 1-2%
Tolerability ([3]; high oral dose levels, postmenopausal women): well tolerated
Plasma levels of estriol late after dosing ([3]; single oral dose 5-40 mg): still measurable up to 72 hrs post dosing
Binding to SHBG [1]: does not bind to SHBG
Concentration at which effects on ERE activation were visible [4]: 10^−10 M
Concentration exerting a mitogenic effect [5]: ≥ 10^−9 M
Initial increase in estriol levels ([6]; conversion of pmol/L value): 144 to 288 pg/mL
Initial increase in estriol levels ([6]; lasted about four hours): 500 to 1000 pmol/L
Peak levels ([7]; oral administration of 6 mg estriol): 80 to 220 pg/mL
Peak levels ([7]; oral administration of 12 mg): 150 to 490 pg/mL
Concentration exerting a mitogenic effect [8]: ≥ 10^−9 M
Growth of LTED cells (result in words) [9]: able to inhibit the growth of LTED cells
Cell number per well ([9]; 10^−5 M estriol): 0.11 ×10^6
Cell number per well ([9]; 10^−6 M estriol): 0.18 ×10^6
Cell number per well ([9]; 10^−7 M estriol): 0.21 ×10^6
Cell number per well ([9]; 10^−8 M estriol): 0.22 ×10^6
Cell number per well ([9]; 10^−9 M estriol): 0.26 ×10^6
Cell number per well ([9]; 10^−10 M estriol): 0.56 ×10^6
Cell number per well ([9]; 10^−11 M estriol): 0.92 ×10^6
Cell number per well ([9]; 10^−12 M estriol): 1.17 ×10^6
Concentration at which peak inhibition is observed ([9]; no significant further inhibition at higher concentrations): 10^−9 M
